# Test results from ChEMBL document CHEMBL5365529, “Construction and Evaluation of Novel Dual-function Antifungal Inhibitors and Covalent Organic Framework Carriers Based on the Infection Microenvironment” (J Med Chem, 2023).
# Activity calls are given as the source filed them. No cut-off for these calls is given here.
# Experiments:
# [1] = biological target: T1, Lanosterol 14-alpha demethylase (Candida albicans (strain SC5314 / ATCC MYA-2876) (Yeast), UniProt P10613); test: Inhibition of CYP51 in Candida albicans SC5314 assessed as unknown sterol level at 4 ug/ml incubated for 16 hrs by GC-MS analysis (reference value: 5.35 %); design: scale not given: the % may be the effect or the level left; settings: at 4 µg/mL
# T1 sequence (P10613 whole entry): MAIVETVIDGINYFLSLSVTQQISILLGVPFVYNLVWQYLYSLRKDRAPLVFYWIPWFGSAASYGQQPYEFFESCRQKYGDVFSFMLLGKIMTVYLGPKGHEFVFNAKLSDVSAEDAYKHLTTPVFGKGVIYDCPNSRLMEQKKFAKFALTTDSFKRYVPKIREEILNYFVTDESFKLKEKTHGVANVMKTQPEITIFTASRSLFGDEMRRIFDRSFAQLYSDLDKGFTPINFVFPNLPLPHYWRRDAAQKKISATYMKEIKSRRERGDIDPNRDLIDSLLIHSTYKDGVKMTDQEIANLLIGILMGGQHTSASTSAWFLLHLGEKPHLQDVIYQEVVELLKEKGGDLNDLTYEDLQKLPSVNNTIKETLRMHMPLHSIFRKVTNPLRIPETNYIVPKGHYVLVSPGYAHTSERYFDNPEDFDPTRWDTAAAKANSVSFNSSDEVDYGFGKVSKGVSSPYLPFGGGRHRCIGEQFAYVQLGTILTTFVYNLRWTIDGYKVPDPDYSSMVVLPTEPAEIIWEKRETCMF
# [2] = biological target: Programmed cell death 1 ligand 1 (Homo sapiens, UniProt Q9NZQ7); test: Inhibition of human PD-L1 incubated for 15 mins by ELISA method
# Sequence of Programmed cell death 1 ligand 1 (Q9NZQ7 whole entry): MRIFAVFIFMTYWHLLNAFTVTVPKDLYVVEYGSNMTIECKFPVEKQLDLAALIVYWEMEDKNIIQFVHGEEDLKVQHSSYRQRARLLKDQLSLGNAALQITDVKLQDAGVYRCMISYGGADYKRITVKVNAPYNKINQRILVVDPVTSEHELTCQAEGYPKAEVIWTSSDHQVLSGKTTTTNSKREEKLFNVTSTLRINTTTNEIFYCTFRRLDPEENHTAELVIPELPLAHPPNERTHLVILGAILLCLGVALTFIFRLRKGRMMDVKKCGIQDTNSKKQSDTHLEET
# Nakaseomyces glabratus = test: Antifungal activity against Candida glabrata assessed as fungal growth inhibition incubated for 72 hrs by CLSI based susceptibility test; format: functional
# Candida tropicalis = test: Antifungal activity against Candida tropicalis ATCC 1369 assessed as fungal growth inhibition incubated for 72 hrs by CLSI based susceptibility test; format: functional
# Cryptococcus neoformans = test: Antifungal activity against Cryptococcus neoformans ZKCC 2209 assessed as fungal growth inhibition incubated for 72 hrs by CLSI based susceptibility test; format: functional
# Aspergillus fumigatus = test: Antifungal activity against Aspergillus fumigatus KM8001 assessed as fungal growth inhibition incubated for 72 hrs by CLSI based susceptibility test; format: functional
# Candida albicans [3] = test: Antifungal activity against FLC-resistant Candida albicans CaR assessed as fungal growth inhibition incubated for 72 hrs by CLSI based susceptibility test; format: functional
# Candida albicans [4] = test: Antifungal activity against FLC-resistant Candida albicans 901 assessed as fungal growth inhibition incubated for 72 hrs by CLSI based susceptibility test; format: functional
# Candida albicans [5] = test: Antifungal activity against FLC-resistant Candida albicans 904 assessed as fungal growth inhibition incubated for 72 hrs by CLSI based susceptibility test; format: functional
# [6] = biological target: T1, Lanosterol 14-alpha demethylase; test: Inhibition of CYP51 in Candida albicans SC5314 using lanosterol as substrate incubated for 60 mins by HPLC analysis
# Candida albicans [7] = test: Induction of mitochondrial membrane depolarization in Candida albicans SC5314 by JC-1 staining based flow cytometry (reference value: 12.51 %); format: functional
# Candida albicans [8] = test: Induction of apoptosis in Candida albicans SC5314 assessed as apoptotic cells incubated for 48 hrs by annexin V-FITC/PI staining based flow cytometry (reference value: 2.12 %); format: functional
# Candida albicans [9] = test: Induction of apoptosis in Candida albicans SC5314 assessed as necrotic cells incubated for 48 hrs by annexin V-FITC/PI staining based flow cytometry (reference value: 2.12 %); format: functional
# Candida albicans [10] = test: Induction of morphological changes in Candida albicans SC5314 assessed as decrease in cell membrane thickness measured after 48 hrs by TEM analysis; format: functional, organism-based
# Candida albicans [11] = test: Induction of morphological changes in Candida albicans SC5314 assessed as leakage of cell contents measured for 96 to 144 hrs by TEM analysis; format: functional, organism-based; settings: time 96-144 hrs
# Candida albicans [12] = test: Induction of morphological changes in Candida albicans SC5314 assessed as reduction in cytoplasmic density measured for 96 to 144 hrs by TEM analysis; format: functional, organism-based; settings: time 96-144 hrs
# Candida albicans [13] = test: Induction of morphological changes in Candida albicans SC5314 assessed as edematous vacuoles measured for 96 to 144 hrs by TEM analysis; format: functional, organism-based; settings: time 96-144 hrs
# Candida albicans [14] = test: Induction of morphological changes in Candida albicans SC5314 assessed as necrotic cellular debris measured for 96 to 144 hrs by TEM analysis; format: functional, organism-based; settings: time 96-144 hrs
# [15] = Drug uptake in Candida albicans SC5314 assessed as increase in green fluorescence by imaging analysis; format: ADME
# [16] = Drug uptake in Candida albicans SC5314 assessed as increase in blue fluorescence by hoechst 33256 staining based imaging analysis; format: ADME
# [17] = Drug uptake in Candida albicans SC5314 assessed as increase in red fluorescence by PI staining based imaging analysis; format: ADME
# [18] = Toxicity in BALB/c mouse infected with Candida albicans 901 assessed as toxic side effects at 0.5 ug/g administered 6 times measured after 4 days; settings: in vivo, 96 h, dose 0.5 µg/g, time 4 day
# Candida albicans [19] = test: Antifungal activity against Candida albicans 901 infected in BALB/c mouse assessed as disappearance of nuclear aggregation in lesion at 0.5 ug/g administered 6 times measured after 4 days by H and E staining based analysis; format: functional, organism-based; settings: dose 0.5 µg/g, time 4.0 day
# Candida albicans [20] = test: Antifungal activity against Candida albicans 901 infected in BALB/c mouse assessed as appearance of necrotic cell fragments in interstitial space at 0.5 ug/g administered 6 times measured after 4 days by H and E staining based analysis; format: functional, organism-based; settings: dose 0.5 µg/g, time 4.0 day
# Candida albicans [21] = test: Antifungal activity against Candida albicans 901 infected in BALB/c mouse assessed as inhibition of fungal proliferation at 0.5 ug/g administered 6 times measured after 4 days by Masson staining based analysis; format: functional, organism-based; settings: dose 0.5 µg/g, time 4.0 day
# Candida albicans [22] = test: Antifungal activity against Candida albicans 901 infected in BALB/c mouse assessed as decrease in collagen fiber content at 0.5 ug/g administered 6 times measured after 4 days by Masson staining based analysis; format: functional, organism-based; settings: dose 0.5 µg/g, time 4.0 day
# Candida albicans [23] = test: Antifungal activity against Candida albicans 901 infected in BALB/c mouse assessed as repair of tissue damage at 0.5 ug/g administered 6 times measured after 4 days by Masson staining based analysis; format: functional, organism-based; settings: dose 0.5 µg/g, time 4.0 day
# Candida albicans [24] = test: Antifungal activity against Candida albicans 901 infected in BALB/c mouse assessed as repair of tissue damage at 0.5 ug/g administered 6 times measured after 4 days by GMS staining based analysis; format: functional, organism-based; settings: dose 0.5 µg/g, time 4.0 day
# [25] = Toxicity in BALB/c mouse infected with Candida albicans 901 assessed as pathological change in heart at 0.5 ug/g administered 6 times measured after 4 days by H and E staining based analysis; format: tissue-based; settings: in vivo, 96 h, dose 0.5 µg/g, time 4 day
# [26] = Toxicity in BALB/c mouse infected with Candida albicans 901 assessed as pathological change in liver at 0.5 ug/g administered 6 times measured after 4 days by H and E staining based analysis; format: tissue-based; settings: in vivo, 96 h, dose 0.5 µg/g, time 4 day
# [27] = Toxicity in BALB/c mouse infected with Candida albicans 901 assessed as pathological change in kidney at 0.5 ug/g administered 6 times measured after 4 days by H and E staining based analysis; format: tissue-based; settings: in vivo, 96 h, dose 0.5 µg/g, time 4 day
# [28] = Toxicity in BALB/c mouse infected with Candida albicans 901 assessed as plasma ALT level at 0.5 ug/g administered 6 times measured after 4 days (reference value: 30.4 +/- 4.6 IU/L); settings: in vivo, 96 h, dose 0.5 µg/g, time 4 day
# [29] = Toxicity in BALB/c mouse infected with Candida albicans 901 assessed as plasma BUN level at 0.5 ug/g administered 6 times measured after 4 days (reference value: 20.4 +/- 1.5 mmol/L); settings: in vivo, 96 h, dose 0.5 µg/g, time 4 day
# Mus musculus = test: Antiinflammatory activity in BALB/c mouse infected with Candida albicans 901 assessed as decrease in COX-2 level at 0.5 ug/g administered 6 times measured after 4 days by IHC analysis; format: functional, organism-based; settings: dose 0.5 µg/g, time 4.0 day
# Candida albicans [30] = test: Induction of immunity in BALB/c mouse infected with Candida albicans 901 assessed as decrease in PD-L1 level at 0.5 ug/g administered 6 times measured after 4 days by IHC analysis; format: functional, organism-based; settings: dose 0.5 µg/g, time 4.0 day
# Candida albicans [31] = test: Induction of immunity in BALB/c mouse infected with Candida albicans 901 assessed as increase in CD3 positive level at 0.5 ug/g administered 6 times measured after 4 days by IHC analysis; format: functional, organism-based; settings: dose 0.5 µg/g, time 4.0 day
# Candida albicans [32] = test: Induction of immunity in BALB/c mouse infected with Candida albicans 901 assessed as increase in CD8 positive level at 0.5 ug/g administered 6 times measured after 4 days by IHC analysis; format: functional, organism-based; settings: dose 0.5 µg/g, time 4.0 day
compound,measurement,setting,value
COC(=O)[C@@H](Cn1cncn1)NCc1cccc(OCc2cccc(-c3ccccc3)c2C)c1,Activity,[1],6.65%
same,IC50,[2],21 nM
same,MIC50,Nakaseomyces glabratus,0.125 µg/mL
same,MIC50,Candida tropicalis,0.5 µg/mL
same,MIC50,Cryptococcus neoformans,0.5 µg/mL
same,MIC50,Aspergillus fumigatus,2 µg/mL
same,MIC50,Candida albicans [3],2 µg/mL
same,MIC50,Candida albicans [4],2 µg/mL
same,MIC50,Candida albicans [5],2 µg/mL
same,IC50,[6],170 nM
same,Activity,Candida albicans [7],34.74%
same,Activity,Candida albicans [8],25.91%
same,Activity,Candida albicans [9],25.91%
same,Activity,Candida albicans [10],Active
same,Activity,Candida albicans [11],Active
same,Activity,Candida albicans [12],Active
same,Activity,Candida albicans [13],Active
same,Activity,Candida albicans [14],Active
same,Drug uptake,[15],Active
same,Drug uptake,[16],Active
same,Drug uptake,[17],Active
same,Activity,[18],Non-Toxic
same,Activity,Candida albicans [19],Active
same,Activity,Candida albicans [20],Active
same,inhibition,Candida albicans [21],Active
same,Activity,Candida albicans [22],Active
same,Activity,Candida albicans [23],Active
same,Activity,Candida albicans [24],Active
same,Activity,[25],Non-Toxic
same,Activity,[26],Non-Toxic
same,Activity,[27],Non-Toxic
same,Activity,[28],21.5 IU/L
same,Activity,[29],24.7 mmol/L
same,Activity,Mus musculus,Active
same,Activity,Candida albicans [30],Active
same,Activity,Candida albicans [31],Active
same,Activity,Candida albicans [32],Active
